Results taken from patent EP1210950B1, “Composition against Coccidiosis” (New Pharma Research Sweden AB, priority 2000, dated 2002).

Experiments:
Eimeria spp.oocysts [1] = test: Anticoccidiocidal activity, test A1 (oocyst count in faeces of infected chickens, medicated feed); type: in vivo; conditions: 23 birds in each group
From the text: A total of 92 one day old Habbared X breed chickens were used in the test. They were allocated into 4 groups (23 birds in each group), one group serving as a control group.
(§1) Each composition to be tested was mixed in a sufficient amount of feed for each group and was used for daily feeding from the day zero of the test. Fresh water was supplied ad-libetum.

Eimeria spp.oocysts [2] = test: Anticoccidiocidal activity, test A2 (oocyst count in faeces of infected chickens, medicated feed); type: in vivo; conditions: 22 birds in each group
From the text: A total of 88 one day old Habbared X breed chickens were used in the test. They were allocated into 4 groups (22 birds in each group), one group serving as a control group.
as §1

Eimeria spp.oocysts [3] = test: Anticoccidiocidal activity, test A3 (single components; oocyst count in faeces, Mc-Master technique); type: in vivo, chickens; conditions: 20 birds in each group; for Mean No. of Eimeria spp.oocysts/gram faeces/group, 5 d.p.i. / Mean No. of Eimeria spp.oocysts/gram faeces/group, 6 d.p.i. / Mean No. of Eimeria spp.oocysts/gram faeces/group, 7 d.p.i. / Mean No. of Eimeria spp.oocysts/gram faeces/group, 8 d.p.i. / Mean No. of Eimeria spp.oocysts/gram faeces/group, 9 d.p.i. / Mean No. of Eimeria spp.oocysts/gram faeces/group, 10 d.p.i. / Mean No. of Eimeria spp.oocysts/gram faeces/group, 12 d.p.i.: during feeding with tested product; for Mean No. of Eimeria spp.oocysts/gram faeces/group, 5 d.p.i.: oral infection with mixture of 5 Eimeria strains, ppm in feed as given per group; for Total number of oocysts: sum of 5-12 d.p.i.
From the text: A total of 100 one day old Habbared X breed chickens were used in the test. They were reared on un-medicated feed as one group during the first 3 days. After that they were allocated into 5 groups (20 each) in 5 separate (1 x 1 meter) pens. With the beginning of the day 8 of bird life, the composition to be tested was mixed into the feed of each group and was used for daily feeding. Fresh water was supplied ad-libetum. The test groups were: [table] The birds were kept on medicated feed for totally […]. […] Eimeria acervulina, E. maxima, E. necatrix, E. tenella and E. brunetti. Fresh fecal droplets were collected daily from the 4th day post experimental infection until day 13 post infection. Mean number of oocyst per gram […] for each group were calculated using the Mc-Master technique according to Soulsby (1984).

[4] = 6 d.p.i., during feeding with tested product, ppm in feed as given per group
[5] = 7 d.p.i., during feeding with tested product
[6] = 8 d.p.i., during feeding with tested product
[7] = 9 d.p.i., during feeding with tested product
[8] = 10 d.p.i., during feeding with tested product
[9] = 11 d.p.i., during feeding with tested product
[10] = 12 d.p.i., during feeding with tested product
[11] = 13 d.p.i., during feeding with tested product

Compound | Mean No. of Eimeria spp.oocysts/gram faeces/group, 5 d.p.i. (Eimeria spp.oocysts [3]) | Mean No. of Eimeria spp.oocysts/gram faeces/group, 6 d.p.i. (Eimeria spp.oocysts [3]) | Mean No. of Eimeria spp.oocysts/gram faeces/group, 7 d.p.i. (Eimeria spp.oocysts [3]) | Mean No. of Eimeria spp.oocysts/gram faeces/group, 8 d.p.i. (Eimeria spp.oocysts [3]) | Mean No. of Eimeria spp.oocysts/gram faeces/group, 9 d.p.i. (Eimeria spp.oocysts [3]) | Mean No. of Eimeria spp.oocysts/gram faeces/group, 10 d.p.i. (Eimeria spp.oocysts [3]) | Mean No. of Eimeria spp.oocysts/gram faeces/group, 12 d.p.i. (Eimeria spp.oocysts [3]) | Total number of oocysts (Eimeria spp.oocysts [3]) | also measured
Cc1nc(C)c(Cl)c(O)c1Cl [Clopidol] |  |  |  |  |  |  |  |  | Mean No. of Eimeria spp.oocysts/gram faeces/group, 6 d.p.i. (Eimeria spp.oocysts [1]; [4]): 8 oocysts/gram faeces/group (number per thousand oocysts); Mean No. of Eimeria spp.oocysts/gram faeces/group, 7 d.p.i. (Eimeria spp.oocysts [1]; [5]): 9600 oocysts/gram faeces/group (number per thousand oocysts); Mean No. of Eimeria spp.oocysts/gram faeces/group, 8 d.p.i. (Eimeria spp.oocysts [1]; [6]): 1872 oocysts/gram faeces/group (number per thousand oocysts); Mean No. of Eimeria spp.oocysts/gram faeces/group, 9 d.p.i. (Eimeria spp.oocysts [1]; [7]): 3900 oocysts/gram faeces/group (number per thousand oocysts); Mean No. of Eimeria spp.oocysts/gram faeces/group, 10 d.p.i. (Eimeria spp.oocysts [1]; [8]): 420 oocysts/gram faeces/group (number per thousand oocysts); Mean No. of Eimeria spp.oocysts/gram faeces/group, 11 d.p.i. (Eimeria spp.oocysts [1]; [9]): 14 oocysts/gram faeces/group (number per thousand oocysts); Mean No. of Eimeria spp.oocysts/gram faeces/group, 12 d.p.i. (Eimeria spp.oocysts [1]; [10]): 53 oocysts/gram faeces/group (number per thousand oocysts); Mean No. of Eimeria spp.oocysts/gram faeces/group, 13 d.p.i. (Eimeria spp.oocysts [1]; [11]): 250 oocysts/gram faeces/group (number per thousand oocysts); Total number of oocysts (Eimeria spp.oocysts [1]; sum of 6-13 d.p.i.): 16117 oocysts/gram faeces/group (number per thousand oocysts); Mean No. of Eimeria spp.oocysts/gram faeces/group, 6 d.p.i. (Eimeria spp.oocysts [2]; [4]): 2 oocysts/gram faeces/group (number per thousand oocysts); Mean No. of Eimeria spp.oocysts/gram faeces/group, 7 d.p.i. (Eimeria spp.oocysts [2]; [5]): 900 oocysts/gram faeces/group (number per thousand oocysts); Mean No. of Eimeria spp.oocysts/gram faeces/group, 8 d.p.i. (Eimeria spp.oocysts [2]; [6]): 1300 oocysts/gram faeces/group (number per thousand oocysts); Mean No. of Eimeria spp.oocysts/gram faeces/group, 9 d.p.i. (Eimeria spp.oocysts [2]; [7]): 980 oocysts/gram faeces/group (number per thousand oocysts); Mean No. of Eimeria spp.oocysts/gram faeces/group, 10 d.p.i. (Eimeria spp.oocysts [2]; [8]): 1500 oocysts/gram faeces/group (number per thousand oocysts); Mean No. of Eimeria spp.oocysts/gram faeces/group, 11 d.p.i. (Eimeria spp.oocysts [2]; [9]): 200 oocysts/gram faeces/group (number per thousand oocysts); Mean No. of Eimeria spp.oocysts/gram faeces/group, 12 d.p.i. (Eimeria spp.oocysts [2]; [10]): 200 oocysts/gram faeces/group (number per thousand oocysts); Mean No. of Eimeria spp.oocysts/gram faeces/group, 13 d.p.i. (Eimeria spp.oocysts [2]; [11]): 130 oocysts/gram faeces/group (number per thousand oocysts); Total number of oocysts (Eimeria spp.oocysts [2]; sum of 6-13 d.p.i.): 5212 oocysts/gram faeces/group (number per thousand oocysts)
NC(N)=Nc1nc(CSCCC(N)=NS(N)(=O)=O)cs1 [Famo-tidine, Famotidine] | 0.0 oocysts/gram faeces/group (number per thousand oocysts) | 0.0 oocysts/gram faeces/group (number per thousand oocysts) | 160 oocysts/gram faeces/group (number per thousand oocysts) | 280 oocysts/gram faeces/group (number per thousand oocysts) | 460 oocysts/gram faeces/group (number per thousand oocysts) | 10 oocysts/gram faeces/group (number per thousand oocysts) | 0 oocysts/gram faeces/group (number per thousand oocysts) | 910 oocysts/gram faeces/group (number per thousand oocysts) | 
CN[C@@H]1[C@H](O[C@H]2[C@H](O[C@H]3[C@H](O)[C@@H](O)[C@H](NC(=N)N)[C@@H](O)[C@@H]3NC(=N)N)O[C@@H](C)[C@]2(O)CO)O[C@@H](CO)[C@H](O)[C@H]1O [dihydro-streptomycin, dihydrostreptomycin] | 0.0 oocysts/gram faeces/group (number per thousand oocysts) | 38 oocysts/gram faeces/group (number per thousand oocysts) | 710 oocysts/gram faeces/group (number per thousand oocysts) | 138 oocysts/gram faeces/group (number per thousand oocysts) | 138 oocysts/gram faeces/group (number per thousand oocysts) | 0 oocysts/gram faeces/group (number per thousand oocysts) |  | 956 oocysts/gram faeces/group (number per thousand oocysts) | 
Nc1nc2ncc(CNc3ccc(C(=O)N[C@@H](CCC(=O)O)C(=O)O)cc3)nc2c(=O)[nH]1 [folic acid] | 0 oocysts/gram faeces/group (number per thousand oocysts) | 22 oocysts/gram faeces/group (number per thousand oocysts) | 251 oocysts/gram faeces/group (number per thousand oocysts) | 310 oocysts/gram faeces/group (number per thousand oocysts) | 220 oocysts/gram faeces/group (number per thousand oocysts) | 3 oocysts/gram faeces/group (number per thousand oocysts) | 0 oocysts/gram faeces/group (number per thousand oocysts) | 806 oocysts/gram faeces/group (number per thousand oocysts) | 
